Laboratory results as given in ChEMBL document CHEMBL1201862, “PubChem BioAssay data set” (2004).
Calls of active or inactive are those of the source.

Key:
[1] = viability loss in HeLa cells – cytotoxicity control for MgcRacGAP inhibitor project, dose response (AID 624300); type: functional
[2] = HGIII-sPLA2 enzyme inhibition potency – biochemical, QFRET, IC50, dose response (AID 743457);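 also: green fluorescence rise as the enzyme cleaves BODIPY PC-A2 in liposomes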
H9c2 = test: cells; type: functional, cell-based; conditions: Rattus norvegicus, H9c2, Myocardium
[3] = Counterscreen for inhibitors of Trypanosoma brucei methionyl tRNA synthetase (MetRS): Luminescence-based cell-based high throughput dose response assay to identify compounds that are cytotoxic to Jurkat human T lymphocyte cells.; type: functional
[4] = target: Serine/threonine-protein kinase pim-1 (Homo sapiens, UniProt P11309); type: functional
[5] = target: Cell division cycle 7-related protein kinase (Homo sapiens, UniProt O00311); type: functional;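 also: value obtained from a kinome-wide kinase panel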
[6] = target: Homeodomain-interacting protein kinase 2 (Homo sapiens, UniProt Q9H2X6); type: functional;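 also: measured within a kinome-wide kinase profiling panel, HIPK2 being one panel member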
[7] = target: MAP kinase-interacting serine/threonine-protein kinase 2 (Homo sapiens, UniProt Q9HBH9); type: functional
[8] = target: T1, Interleukin-1 receptor-associated kinase 4 (Homo sapiens, UniProt Q9NWZ3); type: functional
T1 sequence (Q9NWZ3 whole entry): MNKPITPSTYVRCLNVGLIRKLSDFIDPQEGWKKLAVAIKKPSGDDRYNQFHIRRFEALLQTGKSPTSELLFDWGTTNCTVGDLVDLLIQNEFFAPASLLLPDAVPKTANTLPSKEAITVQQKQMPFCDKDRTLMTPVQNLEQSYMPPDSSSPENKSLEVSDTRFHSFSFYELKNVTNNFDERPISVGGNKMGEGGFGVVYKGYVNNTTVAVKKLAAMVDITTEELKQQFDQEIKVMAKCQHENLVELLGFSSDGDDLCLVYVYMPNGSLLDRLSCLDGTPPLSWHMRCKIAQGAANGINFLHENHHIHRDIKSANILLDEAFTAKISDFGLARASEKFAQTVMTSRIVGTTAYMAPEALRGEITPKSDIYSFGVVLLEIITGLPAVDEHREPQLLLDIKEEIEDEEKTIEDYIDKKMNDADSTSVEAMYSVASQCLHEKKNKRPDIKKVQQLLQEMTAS

[9] = target: Glycogen synthase kinase-3 beta (Homo sapiens, UniProt P49841); type: functional;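 also: value comes from a broad kinome profiling panel, with GSK3B as the panel member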
[10] = target: cAMP-dependent protein kinase catalytic subunit alpha (Homo sapiens, UniProt P17612); type: functional
[11] = target: Dual specificity protein kinase CLK4 (Homo sapiens, UniProt Q9HAZ1); type: functional
[12] = target: Mitogen-activated protein kinase kinase kinase kinase 4 (Homo sapiens, UniProt O95819); type: functional
[13] = viability loss in HEK293T cells – cell-based, cherry-picks, cytotoxicity control for HIV Vif inhibitor project, dose response (AID 652208); type: functional
[14] = target: Nuclear receptor subfamily 5 group A member 2 (Homo sapiens, UniProt O00482); type: functional, cell-based;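 also: HEK293T cells transfected with LRH-1 and a StAR promoter luciferase reporter; potency for inhibitors that lower LRH-1 driven reporter light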
Steroidogenic factor 1 = Steroidogenic factor 1 (Homo sapiens, UniProt Q13285); test: Counterscreen for inverse agonists of the liver receptor homolog-1 (LRH-1; NR5A2): Luminescence-based cell-based high throughput dose response assay to identify inverse agonists of the Steroidogenic Factor 1 Nuclear Receptor (SF1; NR5A1).; type: functional
[15] = nonselective StAR promoter luciferase inhibitors – cell-based, luminescence, luciferase reporter, counter-screen for LRH-1 inverse agonist project, dose response (AID 651969); type: functional
[16] = target: Adenosylmethionine-8-amino-7-oxononanoate aminotransferase (Mycobacterium tuberculosis, UniProt P9WQ81); test: Mycobacterium tuberculosis BioA enzyme inhibitor Measured in Biochemical System Using Plate Reader - 2163-02_Inhibitor_Dose_CherryPick_Activity.; type: functional, Mycobacterium tuberculosis UT205
cells = type: functional, cell-based
[17] = target: T2, Nuclear receptor subfamily 0 group B member 1 (Homo sapiens, UniProt P51843); type: functional, cell-based;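 also: HEK293T cells transfected with SF-1 and DAX-1 plus StAR promoter luciferase reporter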
T2 sequence (P51843 whole entry): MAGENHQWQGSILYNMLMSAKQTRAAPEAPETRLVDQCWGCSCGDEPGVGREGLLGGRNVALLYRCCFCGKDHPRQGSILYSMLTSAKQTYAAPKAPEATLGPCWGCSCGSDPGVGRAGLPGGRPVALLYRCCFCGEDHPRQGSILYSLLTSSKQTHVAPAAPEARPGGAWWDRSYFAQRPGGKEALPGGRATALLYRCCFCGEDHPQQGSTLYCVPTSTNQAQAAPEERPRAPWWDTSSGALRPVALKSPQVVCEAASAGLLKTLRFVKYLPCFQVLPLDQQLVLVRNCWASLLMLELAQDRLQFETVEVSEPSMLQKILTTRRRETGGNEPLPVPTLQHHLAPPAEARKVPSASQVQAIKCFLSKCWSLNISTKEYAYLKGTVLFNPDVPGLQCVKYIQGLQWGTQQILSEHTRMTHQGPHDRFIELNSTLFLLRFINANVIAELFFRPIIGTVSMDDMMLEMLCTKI

Genome polyprotein = Genome polyprotein (dengue virus type 2, UniProt P29990); test: flavivirus cap methylation enzyme inhibition – biochemical, confirmation dose response, primary screen (AID 588689); type: functional
[18] = target: T3, Polyadenylate-binding protein 1 (Homo sapiens, UniProt P11940); test: MLLE binding blockers, Cy5 peptide tracer – biochemical, fluorescence polarization, Cy5-PAM2 peptide, secondary, miRNA deadenylation inhibitor project, dose response (AID 602260); type: functional; conditions: read-out: IC50_Mean
[19] = target: T3, Polyadenylate-binding protein 1; test: MLLE domain peptide-binding blockers, IC50 – biochemical, fluorescence polarization, FITC-PAM2 peptide, dose response (AID 602259); type: functional; conditions: read-out: IC50_Mean
[20] = target: T4, Sentrin-specific protease 8 (Homo sapiens, UniProt Q96LD8); type: functional
T4 sequence (Q96LD8 whole entry): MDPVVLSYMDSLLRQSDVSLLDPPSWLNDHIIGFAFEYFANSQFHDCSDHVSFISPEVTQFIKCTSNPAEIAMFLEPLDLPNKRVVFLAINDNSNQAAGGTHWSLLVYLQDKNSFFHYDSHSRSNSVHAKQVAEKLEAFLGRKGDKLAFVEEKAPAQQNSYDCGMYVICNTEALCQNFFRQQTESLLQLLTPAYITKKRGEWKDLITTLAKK

[21] = target: T4, Sentrin-specific protease 8; type: functional; remark: listed apart in the source
Interleukin-8 = Interleukin-8 (Homo sapiens, UniProt P10145); test: Dose Response confirmation of uHTS small molecule hits for cystic fibrosis induced NFkb Inhibitors in a PAF-induced IL8 counterscreen.; type: functional; conditions: read-out: IC50_Mean
[22] = target: T5, Apoptotic protease-activating factor 1 (Homo sapiens, UniProt O14727); test: SAR analysis of small molecule Activators of Apaf-1 in a Fluorescent assay.; type: functional; conditions: read-out: EC50_Mean;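 also: caspase-3 cleavage of fluorogenic Rh110 DEVD substrate downstream of apoptosome activation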
T5 sequence (O14727 whole entry): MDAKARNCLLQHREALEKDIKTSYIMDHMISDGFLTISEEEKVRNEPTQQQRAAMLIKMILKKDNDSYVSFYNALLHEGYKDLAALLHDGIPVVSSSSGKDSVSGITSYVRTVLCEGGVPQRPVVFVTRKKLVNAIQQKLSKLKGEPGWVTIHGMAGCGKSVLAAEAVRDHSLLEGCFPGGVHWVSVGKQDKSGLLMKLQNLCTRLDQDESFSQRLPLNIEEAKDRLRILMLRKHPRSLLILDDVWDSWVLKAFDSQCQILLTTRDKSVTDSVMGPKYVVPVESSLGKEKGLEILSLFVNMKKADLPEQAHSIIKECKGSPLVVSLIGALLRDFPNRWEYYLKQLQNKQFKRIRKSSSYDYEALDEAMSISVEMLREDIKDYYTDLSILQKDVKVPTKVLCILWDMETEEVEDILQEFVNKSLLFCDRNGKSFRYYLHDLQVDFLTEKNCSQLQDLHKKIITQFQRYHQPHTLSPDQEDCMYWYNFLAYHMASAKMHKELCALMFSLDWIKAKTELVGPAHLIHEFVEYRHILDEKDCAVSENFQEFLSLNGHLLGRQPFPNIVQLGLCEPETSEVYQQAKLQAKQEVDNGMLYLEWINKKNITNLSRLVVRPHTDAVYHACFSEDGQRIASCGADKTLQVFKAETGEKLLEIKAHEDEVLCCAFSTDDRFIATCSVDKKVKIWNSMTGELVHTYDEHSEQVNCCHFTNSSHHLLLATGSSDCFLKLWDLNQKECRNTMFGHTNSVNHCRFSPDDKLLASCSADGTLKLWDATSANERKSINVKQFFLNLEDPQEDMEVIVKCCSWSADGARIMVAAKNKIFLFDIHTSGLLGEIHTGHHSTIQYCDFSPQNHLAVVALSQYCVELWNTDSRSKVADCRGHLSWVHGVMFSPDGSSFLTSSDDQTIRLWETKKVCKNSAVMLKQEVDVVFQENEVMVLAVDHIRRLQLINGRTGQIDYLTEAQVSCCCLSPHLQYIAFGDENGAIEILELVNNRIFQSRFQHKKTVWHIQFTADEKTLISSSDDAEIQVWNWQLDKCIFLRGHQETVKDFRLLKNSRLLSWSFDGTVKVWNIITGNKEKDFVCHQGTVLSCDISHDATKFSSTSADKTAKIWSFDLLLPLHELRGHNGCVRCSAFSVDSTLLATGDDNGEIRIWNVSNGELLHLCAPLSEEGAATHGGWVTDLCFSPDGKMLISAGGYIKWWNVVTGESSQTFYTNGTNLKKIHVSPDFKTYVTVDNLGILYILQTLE

[23] = Luminescence Cell-Based Dose Retest to Confirm Inhibitors of Cancer Stem Cells. [Related pubchem assays (depositor defined):AID2717, AID2721]; type: functional; conditions: Homo sapiens
INS1 = test: INS-1E survival protection against cytokine death – cell-based, luminescence, retest, dose response (AID 449756); type: functional; conditions: Rattus norvegicus;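 also: cell death triggered by IL-1 beta plus TNF-alpha plus IFN-gamma mixture; protective hits raise ATP signal compared with cytokine alone wells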
[24] = target: 26S proteasome non-ATPase regulatory subunit 14 (Homo sapiens, UniProt O00487); test: inhibition of proteasome subunit RPN11 – biochemical, fluorescence polarization, uHTS hits, confirmation (AID 602368); type: functional
[25] = target: 72 kDa type IV collagenase (Homo sapiens, UniProt P08253); test: Dose Response validation of uHTS RPN11 inhibitor hits using a MMP-2 Fluorescence assay.; type: functional
Prothrombin = Prothrombin (Bos taurus, UniProt P00735); test: thrombin protease inhibitors – biochemical, fluorescence polarization, uHTS hits, dose response (AID 602369); type: functional
[26] = target: Arf-GAP with SH3 domain, ANK repeat and PH domain-containing protein 1 (Homo sapiens, UniProt Q9ULH1); type: functional;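 also: biochemical fluorescence polarization dose–response screen measuring inhibition of ASAP1; ASAP1 GAP domain stimulating GTP hydrolysis by truncated human ARF1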
[27] = Trypanosoma cruzi growth suppression in host cells – NIH3T3 host cells, beta-gal luminescence, confirmation (AID 2044); type: functional, cell-based;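 also: intracellular parasites grown in NIH/3T3 mouse fibroblasts as host cells; luminescent beta-galactosidase reporter signal from transgenic T. cruzi replicating inside host cells; inhibitors lower the luminescence signal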
[28] = viability of PTEN-deleted HCT116 cells – cell-based, HCT116 PTEN knockout, dose response (AID 1047); type: functional;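 also: HCT116 colon tumor cells with PTEN knocked out; cells exposed to compound for 60 hours before readout; potency for loss of cell viability measured by luminescence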
[29] = NIH3T3 cell viability loss – ATP luminescence, mouse fibroblasts, counter-screen, dose response (AID 2010); type: functional, cell-based;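 also: cells exposed to compound for about 90 hours before reading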
[30] = viability of HCT116 lacking mutant beta-catenin – cell-based, human colon tumor, dose response (AID 1045); type: functional;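 also: HCT116 colon tumor cells with beta catenin knocked out; cells exposed to compound for 60 hours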

Sequence of Adenosylmethionine-8-amino-7-oxononanoate aminotransferase (P9WQ81 whole entry): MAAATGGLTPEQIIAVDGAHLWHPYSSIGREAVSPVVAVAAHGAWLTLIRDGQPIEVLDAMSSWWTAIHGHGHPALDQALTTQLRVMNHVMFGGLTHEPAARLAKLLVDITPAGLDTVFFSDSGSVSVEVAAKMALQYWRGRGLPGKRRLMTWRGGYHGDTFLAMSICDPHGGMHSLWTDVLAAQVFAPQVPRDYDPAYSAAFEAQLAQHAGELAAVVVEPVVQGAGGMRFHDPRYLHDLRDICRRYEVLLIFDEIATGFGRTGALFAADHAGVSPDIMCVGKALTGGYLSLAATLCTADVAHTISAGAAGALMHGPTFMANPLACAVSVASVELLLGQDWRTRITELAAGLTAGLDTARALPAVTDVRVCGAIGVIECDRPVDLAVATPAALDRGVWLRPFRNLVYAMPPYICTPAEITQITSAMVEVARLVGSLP
Sequence of Arf-GAP with SH3 domain, ANK repeat and PH domain-containing protein 1 (Q9ULH1 whole entry, the tested form may be a part): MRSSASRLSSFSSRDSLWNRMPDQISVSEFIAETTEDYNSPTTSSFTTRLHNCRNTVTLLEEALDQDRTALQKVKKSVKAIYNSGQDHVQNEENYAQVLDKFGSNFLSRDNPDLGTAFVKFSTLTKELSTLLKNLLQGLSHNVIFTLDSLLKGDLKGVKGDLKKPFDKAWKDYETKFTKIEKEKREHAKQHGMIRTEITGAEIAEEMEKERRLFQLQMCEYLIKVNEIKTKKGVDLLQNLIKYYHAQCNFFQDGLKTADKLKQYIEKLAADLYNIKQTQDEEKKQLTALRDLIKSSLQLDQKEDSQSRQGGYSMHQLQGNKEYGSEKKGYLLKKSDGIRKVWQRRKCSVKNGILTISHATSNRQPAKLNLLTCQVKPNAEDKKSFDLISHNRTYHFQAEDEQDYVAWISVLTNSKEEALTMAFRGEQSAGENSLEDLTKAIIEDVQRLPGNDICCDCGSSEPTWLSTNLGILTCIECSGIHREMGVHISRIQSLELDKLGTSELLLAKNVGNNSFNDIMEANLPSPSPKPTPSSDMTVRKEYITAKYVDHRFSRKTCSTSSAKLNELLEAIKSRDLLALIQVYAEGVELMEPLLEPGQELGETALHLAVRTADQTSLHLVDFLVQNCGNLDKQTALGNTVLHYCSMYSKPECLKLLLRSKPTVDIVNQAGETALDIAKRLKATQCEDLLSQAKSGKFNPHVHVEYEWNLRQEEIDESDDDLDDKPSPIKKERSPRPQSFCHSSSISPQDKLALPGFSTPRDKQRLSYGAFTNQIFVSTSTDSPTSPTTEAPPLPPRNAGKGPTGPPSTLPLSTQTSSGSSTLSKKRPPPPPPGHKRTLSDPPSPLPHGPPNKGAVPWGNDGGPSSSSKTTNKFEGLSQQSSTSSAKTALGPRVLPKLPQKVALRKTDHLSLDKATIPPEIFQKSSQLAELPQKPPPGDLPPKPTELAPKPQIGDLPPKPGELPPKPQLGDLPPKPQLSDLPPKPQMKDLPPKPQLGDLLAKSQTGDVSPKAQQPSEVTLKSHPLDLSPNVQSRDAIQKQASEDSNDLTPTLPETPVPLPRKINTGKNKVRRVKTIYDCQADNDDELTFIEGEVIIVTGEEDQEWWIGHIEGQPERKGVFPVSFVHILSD
T3 sequence (P11940 whole entry, the tested form may be a part): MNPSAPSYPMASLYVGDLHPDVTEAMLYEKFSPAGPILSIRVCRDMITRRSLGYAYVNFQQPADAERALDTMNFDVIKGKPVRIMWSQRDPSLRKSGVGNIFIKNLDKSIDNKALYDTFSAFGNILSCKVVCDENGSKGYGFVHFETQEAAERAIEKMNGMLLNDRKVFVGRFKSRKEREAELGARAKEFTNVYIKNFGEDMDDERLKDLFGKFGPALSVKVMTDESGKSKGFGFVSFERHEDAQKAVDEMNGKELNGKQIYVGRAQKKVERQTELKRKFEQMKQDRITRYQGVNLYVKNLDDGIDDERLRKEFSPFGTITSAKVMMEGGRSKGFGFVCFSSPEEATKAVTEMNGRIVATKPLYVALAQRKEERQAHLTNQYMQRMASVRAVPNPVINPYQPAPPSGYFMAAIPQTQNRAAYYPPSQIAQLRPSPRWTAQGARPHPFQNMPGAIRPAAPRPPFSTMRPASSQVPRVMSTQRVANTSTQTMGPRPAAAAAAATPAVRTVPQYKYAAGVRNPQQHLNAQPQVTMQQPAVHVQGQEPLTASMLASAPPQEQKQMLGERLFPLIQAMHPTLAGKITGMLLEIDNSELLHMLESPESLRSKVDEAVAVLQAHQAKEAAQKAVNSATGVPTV
Sequence of Nuclear receptor subfamily 5 group A member 2 (O00482 whole entry): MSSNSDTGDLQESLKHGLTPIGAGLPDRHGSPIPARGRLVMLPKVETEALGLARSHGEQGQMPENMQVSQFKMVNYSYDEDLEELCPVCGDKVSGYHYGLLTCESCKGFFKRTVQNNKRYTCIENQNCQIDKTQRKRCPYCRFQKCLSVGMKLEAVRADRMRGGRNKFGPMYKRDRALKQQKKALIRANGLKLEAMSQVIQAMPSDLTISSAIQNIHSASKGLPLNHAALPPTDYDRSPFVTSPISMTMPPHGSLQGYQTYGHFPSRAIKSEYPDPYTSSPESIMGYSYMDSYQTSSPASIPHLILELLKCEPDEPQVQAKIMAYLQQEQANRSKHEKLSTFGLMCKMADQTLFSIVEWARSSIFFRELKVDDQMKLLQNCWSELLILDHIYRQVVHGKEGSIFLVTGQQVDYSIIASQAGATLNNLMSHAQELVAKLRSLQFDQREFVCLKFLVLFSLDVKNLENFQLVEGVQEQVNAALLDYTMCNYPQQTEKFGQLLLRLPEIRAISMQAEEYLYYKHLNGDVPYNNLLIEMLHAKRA
Sequence of Steroidogenic factor 1 (Q13285 whole entry): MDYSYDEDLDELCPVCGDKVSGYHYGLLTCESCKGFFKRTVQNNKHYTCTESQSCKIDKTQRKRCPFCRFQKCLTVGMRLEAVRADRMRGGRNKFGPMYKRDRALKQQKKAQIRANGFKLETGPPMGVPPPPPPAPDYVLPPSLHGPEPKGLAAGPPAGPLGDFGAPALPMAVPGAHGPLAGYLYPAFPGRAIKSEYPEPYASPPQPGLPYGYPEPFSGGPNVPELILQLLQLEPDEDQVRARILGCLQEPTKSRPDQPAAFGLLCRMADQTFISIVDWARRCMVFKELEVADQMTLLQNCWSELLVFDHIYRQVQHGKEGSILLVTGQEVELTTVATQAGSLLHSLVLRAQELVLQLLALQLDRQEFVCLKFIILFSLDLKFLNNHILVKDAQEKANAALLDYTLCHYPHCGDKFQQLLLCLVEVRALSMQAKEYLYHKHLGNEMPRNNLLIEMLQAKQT
Sequence of Interleukin-8 (P10145 whole entry): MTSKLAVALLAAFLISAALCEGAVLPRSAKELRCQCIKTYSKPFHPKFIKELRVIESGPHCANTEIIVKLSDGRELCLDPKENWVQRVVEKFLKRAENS
Sequence of 26S proteasome non-ATPase regulatory subunit 14 (O00487 whole entry): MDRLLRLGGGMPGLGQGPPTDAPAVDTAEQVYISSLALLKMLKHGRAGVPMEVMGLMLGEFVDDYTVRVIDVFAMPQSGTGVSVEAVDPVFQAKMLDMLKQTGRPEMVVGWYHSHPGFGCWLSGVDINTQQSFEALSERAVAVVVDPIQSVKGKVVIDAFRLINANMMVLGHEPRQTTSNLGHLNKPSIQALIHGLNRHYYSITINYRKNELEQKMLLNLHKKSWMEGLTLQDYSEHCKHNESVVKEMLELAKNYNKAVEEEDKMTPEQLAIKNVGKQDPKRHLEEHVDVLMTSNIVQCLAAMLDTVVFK
Sequence of Genome polyprotein (P29990 2492-3391 limits assumed): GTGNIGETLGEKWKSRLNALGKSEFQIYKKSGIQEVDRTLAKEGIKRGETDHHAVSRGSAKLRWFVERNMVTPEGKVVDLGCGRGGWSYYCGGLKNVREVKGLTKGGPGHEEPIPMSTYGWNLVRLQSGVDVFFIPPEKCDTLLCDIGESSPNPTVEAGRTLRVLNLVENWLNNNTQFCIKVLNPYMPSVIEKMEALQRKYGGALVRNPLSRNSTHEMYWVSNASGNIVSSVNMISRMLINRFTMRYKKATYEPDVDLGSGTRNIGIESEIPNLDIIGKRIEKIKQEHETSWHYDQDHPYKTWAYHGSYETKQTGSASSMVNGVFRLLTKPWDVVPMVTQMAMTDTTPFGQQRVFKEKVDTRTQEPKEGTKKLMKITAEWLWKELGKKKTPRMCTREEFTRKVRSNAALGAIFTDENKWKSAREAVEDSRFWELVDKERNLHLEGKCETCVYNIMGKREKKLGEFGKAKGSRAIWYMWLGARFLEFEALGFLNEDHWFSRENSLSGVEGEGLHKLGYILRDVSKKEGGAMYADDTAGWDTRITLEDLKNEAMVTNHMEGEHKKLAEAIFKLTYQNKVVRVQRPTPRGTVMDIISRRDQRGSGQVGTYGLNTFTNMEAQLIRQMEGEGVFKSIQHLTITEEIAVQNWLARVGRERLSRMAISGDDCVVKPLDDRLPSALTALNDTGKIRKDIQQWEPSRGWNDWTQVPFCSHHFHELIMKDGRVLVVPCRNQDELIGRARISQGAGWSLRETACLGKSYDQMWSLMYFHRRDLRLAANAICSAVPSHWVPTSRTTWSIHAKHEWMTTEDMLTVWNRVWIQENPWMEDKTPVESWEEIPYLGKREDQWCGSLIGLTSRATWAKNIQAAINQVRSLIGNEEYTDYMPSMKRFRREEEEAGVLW
Sequence of Serine/threonine-protein kinase pim-1 (P11309 whole entry): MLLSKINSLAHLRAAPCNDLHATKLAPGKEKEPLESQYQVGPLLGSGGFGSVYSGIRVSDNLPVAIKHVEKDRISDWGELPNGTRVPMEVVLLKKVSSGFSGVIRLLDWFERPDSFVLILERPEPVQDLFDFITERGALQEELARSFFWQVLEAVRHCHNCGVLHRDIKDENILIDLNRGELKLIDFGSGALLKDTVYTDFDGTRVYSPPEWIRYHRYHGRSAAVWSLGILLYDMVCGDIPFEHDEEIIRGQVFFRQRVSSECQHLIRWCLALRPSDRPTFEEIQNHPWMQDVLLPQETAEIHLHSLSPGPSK

## COc1ccccc1NC(=O)NNC(=O)c1ccc2ccccc2c1O
[1]
  CC50: 100 µM (active)
[2]
  IC50: > 122 µM (inactive)

## Cc1cc(Cl)ccc1OCCCC(=O)NNC(=O)c1ccccc1O
H9c2
  IC50: > 79 µM (inactive)
[3]
  IC50: 83.3 µM (inactive)

## c1ccc(Cn2nnc(-c3ccc4[nH]ncc4c3)c2-c2ccccc2)cc1
[4]
  Ki: 3.16 µM (active)
[5]
  Ki: 0.000631 µM (active)
[6]
  Ki: 1 µM (active)
[7]
  Ki: 0.0398 µM (active)
[8]
  Ki: > 10 µM (inactive)
[9]
  Ki: 0.01 µM (active)
[10]
  Ki: 0.0316 µM (active)
[11]
  Ki: 0.00501 µM (active)
[12]
  Ki: 0.794 µM (active)

## CCOc1cccc(C(=O)Nc2ccc3oc(Cc4ccc(Cl)cc4)nc3c2)c1
[13]
  AC50: > 52 µM (inactive)

## Cc1ccc(NC(=O)CSc2nnc([C@@H]3CCCN3C(=O)OC(C)(C)C)o2)c(C)c1
[14]
  IC50: 1.33 µM (active)
Steroidogenic factor 1
  IC50: 0.932 µM (active)
[15]
  IC50: 35.9 µM (inactive)

## CC(C)n1nc(C(=O)Nc2ccc(-n3cnnn3)cc2)c2ccccc2c1=O
[13]
  AC50: > 52 µM (inactive)

## O=C(Nc1nccs1)[C@H]1[C@H](CO)[C@H]2Cn3c(ccc(-c4cccnc4)c3=O)[C@H]2N1CC1CCCC1
[16]
  AC50: 8.95 µM (active)

## CCCCN1C(C)=CC(=C2C(=O)c3ccccc3C2=O)C=C1C
cells
  IC50: > 67.5 µM (inactive)
[17]
  IC50: > 67.5 µM (inactive)

## Oc1ccc(CN2CCCCC2)nc1O
Genome polyprotein
  IC50: 64.9 µM (active)
[18]
  IC50: > 66 µM (inactive)
[19]
  IC50: 57.9 µM (inactive)
[20]
  IC50: 15.5 µM (active)
[21]
  IC50: 3.73 µM (active)

## CC(=O)Oc1ccccc1C(=O)Oc1ccc(/C=N/n2cnnc2)cc1
Interleukin-8
  IC50: 4.67 µM (active)

## O=C(C[C@@H]1C[C@@H]2c3cc(NC(=O)c4cccnc4)ccc3O[C@@H]2[C@@H](CO)O1)NCCc1ccccc1
[16]
  AC50: 6.92 µM (active)

## COC(=O)[C@@H]1COC(c2cc([N+](=O)[O-])ccc2[N+](=O)[O-])=N1
[22]
  EC50: > 100 µM (inactive)

## O=C(N/N=C/c1cc(Cl)ccc1O)c1ccc(Br)cc1
[23]
  AC50: 1.09 µM (active)
INS1
  AC50: 0.773 µM (active)
[24]
  IC50: 12.7 µM (active)
[25]
  IC50: 10.3 µM (active)
Prothrombin
  IC50: 63.2 µM (active)
[26]
  IC50: 21.3 µM (inactive)

## N#Cc1cc([N+](=O)[O-])ccc1Oc1cccc(/C=N/NC(=O)c2ccc(Cl)cc2)c1
[27]
  EC50: 0.616 µM (active)
[28]
  EC50: 48.5 µM (active)
[29]
  EC50: > 60 µM (not active)
[30]
  EC50: 51.9 µM (active)
[26]
  IC50: 32.8 µM (inactive)

## C=CCOc1ccc(/C=N/Nc2ccccn2)cc1OC
cells
  IC50: > 67.5 µM (inactive)
[17]
  IC50: > 67.5 µM (inactive)

## COc1ccc(NC(=O)CSc2ccc3c(c2)OCCO3)cc1
[14]
  IC50: 35.9 µM (inactive)
Steroidogenic factor 1
  IC50: 5.7 µM (active)
[15]
  IC50: 35.9 µM (inactive)
